{
  "source": "paper PMC5882628",
  "about": "“Development of a Cell-Based Assay to Assess Binding of the proNGF Prodomain to Sortilin” (Cellular and Molecular Neurobiology, 2017)",
  "key": {"[1]": {"molecular_target": "internalization-mutant sortilin (human) (UniProt Q99523)", "assay": "immunostaining of cells or tissue; HEK293 cells transiently transfected with sortilin (or empty vector) in 96-well dishes, treated 45 min with 50 nM GSTpro or proNGF, washed, fixed, permeabilised (0.1% Triton X-100), stained for sortilin and for GST or the pro domain; automated array-scanner analysis of sortilin-positive and sortilin-negative cells"}, "sortilin [2]": {"tested_on": "sortilin", "settings": "scintillation proximity assay; ref Andersen et al. [2014]; cited from earlier work", "excerpt": "The role of sortilin signaling in several pathologic processes makes it a target for drug development. […] In addition to this assay, other in vitro assays including the binding of ligands to membrane fractions derived from sortilin-expressing cells (Carvelli et al. [2017]), surface plasmon resonance, and l ..."}, "wt sortilin": {"tested_on": "wt sortilin", "assay": "Competition of proNGF against GSTpro binding to wt sortilin-transfected HEK cells (stained for GST)", "assay_type": "cell-based, human", "settings": "5, 10, or 25 nM GSTpro concomitantly with 50 nM proNGF; Fig. 3v", "protocol": "HEK 293 cells were grown in DMEM with 10% fetal bovine serum. They were transfected with plasmids either encoding wild type sortilin, or sortilin with a mutation that renders it endocytosis deficient, or an empty control vector according to manufacturer’s instructions using 20 µg lipofectamine (Thermo Fischer Scientific) with 8 µg DNA on […] per 6 cm, poly-lysine coated dish. The cells were initially plated into 24-well dishes after transfection. That intermediate step rendered more uniform cell numbers in the 96-well dishes that were used to run the actual assay. […]\nA-T Immunohistochemistry on HEK 293 cells using Hoechst staining (nuclei); anti-sortilin staining; or staining directed against the pro domain of proNGF (proNGF/GSTpro); or composite image showing all staining concomitantly as indicated above the panels. a–d Cells transfected with an empty expression vector and treated with GSTpro. e–h Cells transfected with a sortilin expression construct, but not treated with GSTpro. i–l Cells transfected with sortilin and GSTpro treated. m–p, Cells transfected with sortilin and proNGF purified from recombinant E.coli. q–t Cells transfected with sortilin and proNGF purified from a eukaryotic expression system. […] Black columns: Total fluorescence intensity of “sortilin-negative” cells. Red columns: Total fluorescence intensity of sortilin positive cells. […]"}, "sortilin [3]": {"molecular_target": "T1, sortilin (Homo sapiens, UniProt Q99523)", "T1 construct": "They were transfected with plasmids either encoding wild type sortilin, or sortilin with a mutation that renders it endocytosis deficient; expressed in transfected cells; host or cells: HEK 293 cells, transient transfection (lipofectamine)", "T1 sequence (Q99523 78-831)": "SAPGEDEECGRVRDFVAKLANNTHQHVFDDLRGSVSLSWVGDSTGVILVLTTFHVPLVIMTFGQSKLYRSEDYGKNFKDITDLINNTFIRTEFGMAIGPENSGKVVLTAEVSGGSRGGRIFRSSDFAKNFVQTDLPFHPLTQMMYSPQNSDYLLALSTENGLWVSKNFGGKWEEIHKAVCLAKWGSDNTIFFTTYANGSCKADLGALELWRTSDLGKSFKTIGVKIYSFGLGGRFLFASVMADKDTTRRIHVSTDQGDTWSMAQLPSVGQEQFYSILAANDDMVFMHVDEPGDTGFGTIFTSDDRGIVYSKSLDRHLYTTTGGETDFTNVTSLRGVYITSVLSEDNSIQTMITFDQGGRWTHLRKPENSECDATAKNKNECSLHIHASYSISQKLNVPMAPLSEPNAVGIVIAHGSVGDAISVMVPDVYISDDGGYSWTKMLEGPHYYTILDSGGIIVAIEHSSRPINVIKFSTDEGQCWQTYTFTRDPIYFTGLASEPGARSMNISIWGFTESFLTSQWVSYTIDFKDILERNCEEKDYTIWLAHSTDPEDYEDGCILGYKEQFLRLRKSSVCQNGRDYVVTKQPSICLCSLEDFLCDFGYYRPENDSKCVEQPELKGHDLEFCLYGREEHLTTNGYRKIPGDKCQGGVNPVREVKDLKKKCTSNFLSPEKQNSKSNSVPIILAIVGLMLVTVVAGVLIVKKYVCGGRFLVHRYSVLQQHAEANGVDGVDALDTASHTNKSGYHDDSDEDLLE", "assay": "Cell-based assay of GSTpro (NGF prodomain) binding/uptake, wt sortilin-transfected HEK293 cells, sortilin/GST double stain, high content imaging, with detergent", "settings": "Fig. 6a; with detergent; sortilin-positive cells; preincubation 1 h, GSTpro 45 min", "protocol": "HEK 293 cells were grown in DMEM with 10% fetal bovine serum. They were transfected with plasmids either encoding wild type sortilin, or sortilin with a mutation that renders it endocytosis deficient, or an empty control vector according to manufacturer’s instructions using 20 µg lipofectamine (Thermo Fischer Scientific) with 8 µg DNA on […] per 6 cm, poly-lysine coated dish. The cells were initially plated into 24-well dishes after transfection. That intermediate step rendered more uniform cell numbers in the 96-well dishes that were used to run the actual assay. 24 h later, cells were split into black opaque-walled, clear-bottom 96 well dishes at 42000 cells in 80 µl medium/well. […] 1 h after that treatment, the medium was replaced with 80 µl medium containing the same antibody, compounds or peptides included in the preincubation medium, plus recombinant GSTpro or proNGF (either purified in-house from recombinant HEK cells or derived from an E.coli expression system at either 0 nM (negative control), or 50 nM, or, in a few instances at 5 or 10 nM. The respective concentrations are indicated in the figures 45 min after adding GSTpro or proNGF, cells were washed twice with prewarmed PBS and fixed in 4% PFA for 20 min at approximately 20 °C.\nThe fixed cells were washed with PBS for 15 min, followed by two 15 min washes with PBS with 0.1% Triton X-100. […] Wells to be evaluated for blocking of the sortilin-GSTpro interaction by antibodies were only stained with an antibody against the pro domain of proNGF in 10% FBS at a dilution of 1:1500 (Millipore (N-term) clone EPI318Y, Rabbit Monoclonal Antibody Catalog Number: #04-1142). […]\nThe following day, wells were washed 3 × 15 min with PBS/0.1% Triton X-100. […] Cellular fluorescence was quantified using an array scanner and the “Neuronal Profiler” Bioapplication (Thermo Fisher Scientific) as described below.\nSortilin-GSTpro interaction was also assessed using HEK cell derived cell lines stably expressing sortilin. […]\nImages from 96 well dishes were automatically recorded with a Cellomics ArrayScan VTI HCS Reader (Thermo Scientific) using a 10× microscope objective and the build-in standard autofocus method. Fifteen 1024 × 1024 images in 4 channels (Channel 1 and 2: Filter XF5–Hoechst, to detect nuclei and all cells; Channel 3: XF53-Texas Red to detect, e.g., sortilin-positive cells; Channel 4: Filter XF93 – FITC, to detect cells positive, e.g., for the proNGF pro domain) were recorded per 96 well.\nThe images were analyzed with the Cellomics assay algorithm NeuronalProfiling.V3.5."}, "proNGF (Homo sapiens)": {"molecular_target": "proNGF (Homo sapiens) (UniProt P01138)", "sequence (P01138 122-241)": "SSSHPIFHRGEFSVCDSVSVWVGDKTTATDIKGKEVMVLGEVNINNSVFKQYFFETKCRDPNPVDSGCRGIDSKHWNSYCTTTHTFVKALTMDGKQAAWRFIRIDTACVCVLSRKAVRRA", "settings": "cited from earlier work"}},
  "data": [
    {"compound": "GSTpro (GST C-terminally linked to the pro domain from NGF) (from UniProt P01138 19-121) (domain or fragment)", "values": [
      {"measurement": "GSTpro signal compared to wt sortilin transfected cells", "setting": "[1]", "value": 60, "unit": "% higher"}
    ]},
    {"compound": "Cc1cc(=O)oc2c(CN[C@@H](CC(C)C)C(=O)O)c(O)ccc12", "note": "[AF40431]", "values": [
      {"measurement": "blocking of sortilin-neurotensin interaction (in words)", "setting": "sortilin [2]", "value": "blocked sortilin-neurotensin interaction"}
    ]},
    {"compound": "euk. proNGF: proNGF isolated from a mammalian expression system", "values": [
      {"measurement": "competition against GSTpro binding to sortilin (in words)", "setting": "wt sortilin", "value": "compete against GSTpro binding to wt sortilin"}
    ]},
    {"compound": "PYIL [reference compound]", "values": [
      {"measurement": "reduction of GSTpro signal by neurotensin-derived and control peptides (in words)", "setting": "sortilin [3]", "value": "to a lesser extent also reduced"}
    ]},
    {"compound": "sortilin (from UniProt Q99523)", "values": [
      {"measurement": "Kd", "setting": "proNGF (Homo sapiens)", "value": 5, "unit": "nM"}
    ]},
    {"compound": "proNGF isolated from recombinant E. coli: Recombinant human proNGF expressed and purified from E.coli, purchased from Alamone labs", "values": [
      {"measurement": "competition against GSTpro binding to sortilin (in words)", "setting": "wt sortilin", "value": "compete against GSTpro binding to wt sortilin"}
    ]}
  ]
}
